# Reference: US10946019B2, “Nurr1:RXR activating compounds for simultaneous treatment of symptoms and pathology of Parkinson's disease” (priority 2015, dated 2021)
# Legend:
# [1] = system: C57BL/6 mice exposed to MPTP; assay: Neuroprotection in the acute MPTP mouse model; assay type: in vivo
# Nurr1:RXRγ heterodimer = Nurr1:RXRγ heterodimer (Homo sapiens (Human), UniProt P48443); assay: Nurr1:RXRγ luciferase reporter transactivation assay; assay type: cell-based; conditions: SHSY-5Y
# Method: Synthesized compounds of the invention and their analogs, shown in Table 1, below, were evaluated for activity in cellular assays. The in vitro transactivation assay determined the capacity of the compounds of the invention to activate the Nurr1:RXR heterodimers. Naive SHSY-5Y cells were transiently co-transfected, using Lipofectamine 2000 (Invitrogen), with a plasmid expressing the human receptor Nurr1, a plasmid expressing the RXR human receptor (RXRα or RXRγ receptor) and a reporter plasmid DR5-TK-Luc. After 24 hours, the culture medium was changed. The test compounds were added (final concentration between 0.5, 2.5 and 12.5 μM) in the culture medium. After incubation overnight, the expression of luciferase was measured (FIG. 1A). Positive control cells were treated with XCT0135908 (1 μM; WO 2005/047268) which induces activation of the Nurr1:RXR heterodimer and results in maximal expression of luciferase. The transcription-activating activities of various compounds of the invention are shown in FIG. 1B, as well as in Table 1, below. […] Furthermore, compound 3 is selective for the Nurr1:RXRα heterodimer over the Nurr1:RXRγ heterodimer (FIG. 1D).
# TH = assay: Expression of DA biosynthesis genes in SHSY-5Y by qPCR; assay type: cell-based, human; conditions: 12.5 μM, vs vehicle
# From the text: (§1) FIGS. 72A-72R show the ability of compound 3 to induce the expression of genes involved in dopamine biosynthesis as well as the neuroprotective effects of compound 3 in cell lines and patient iPCs-derived dopaminergic neurons. […] FIGS. 72F, 72G, 72H, and 72I show representative confocal microscopy images of the compound 3-treated primary rat cortical neurons. […] FIG. 72M-72R show the effects of compound 3 on PD patient iPS cell-derived dopaminergic neurons with the LRRK2-G2019S mutation or corrected mutation (GC). Compound 3 treatment rescues neurite length (M, expressed in […]), number (N) and branching (O) phenotypes. Representative images show staining with TuJ, TH and DAPI (FIGS. 72P, 72Q, and 72R).
# (§2) Nurr1 regulates the transcription of DA biosynthesis genes (Kim et al. J. Neurochem. 85:622-634, 2003 and Gil et al. J Neurochem 101:142-150, 2007); however, whether this process is mediated by Nurr1:RXRα heterodimers is unknown.
# GCH1 = assay: as above; assay type: cell-based, human; conditions: 12.5 μM, vs vehicle
# From the text: as §1, §2
# [2] = system: aromatic L-amino acid decarboxylase (AADC); assay: as above; assay type: cell-based, human; conditions: 12.5 μM, vs vehicle
# From the text: as §1, §2
# Sequence of Nurr1:RXRγ heterodimer (P48443 whole entry, looked up): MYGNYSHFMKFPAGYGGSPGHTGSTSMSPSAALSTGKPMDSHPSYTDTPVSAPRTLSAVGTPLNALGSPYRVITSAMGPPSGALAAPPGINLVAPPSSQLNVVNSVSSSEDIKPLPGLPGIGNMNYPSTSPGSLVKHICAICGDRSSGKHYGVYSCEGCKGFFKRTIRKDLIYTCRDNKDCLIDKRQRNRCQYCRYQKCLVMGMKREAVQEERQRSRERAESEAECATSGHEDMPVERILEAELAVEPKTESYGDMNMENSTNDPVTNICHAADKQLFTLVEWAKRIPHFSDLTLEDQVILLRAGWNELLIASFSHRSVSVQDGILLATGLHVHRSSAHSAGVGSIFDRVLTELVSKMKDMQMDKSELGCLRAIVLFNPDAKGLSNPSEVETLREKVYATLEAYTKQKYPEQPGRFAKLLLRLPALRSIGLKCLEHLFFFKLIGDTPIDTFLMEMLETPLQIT
# Sequence of Nurr1:RXRγ heterodimer (P43354 whole entry partner, looked up): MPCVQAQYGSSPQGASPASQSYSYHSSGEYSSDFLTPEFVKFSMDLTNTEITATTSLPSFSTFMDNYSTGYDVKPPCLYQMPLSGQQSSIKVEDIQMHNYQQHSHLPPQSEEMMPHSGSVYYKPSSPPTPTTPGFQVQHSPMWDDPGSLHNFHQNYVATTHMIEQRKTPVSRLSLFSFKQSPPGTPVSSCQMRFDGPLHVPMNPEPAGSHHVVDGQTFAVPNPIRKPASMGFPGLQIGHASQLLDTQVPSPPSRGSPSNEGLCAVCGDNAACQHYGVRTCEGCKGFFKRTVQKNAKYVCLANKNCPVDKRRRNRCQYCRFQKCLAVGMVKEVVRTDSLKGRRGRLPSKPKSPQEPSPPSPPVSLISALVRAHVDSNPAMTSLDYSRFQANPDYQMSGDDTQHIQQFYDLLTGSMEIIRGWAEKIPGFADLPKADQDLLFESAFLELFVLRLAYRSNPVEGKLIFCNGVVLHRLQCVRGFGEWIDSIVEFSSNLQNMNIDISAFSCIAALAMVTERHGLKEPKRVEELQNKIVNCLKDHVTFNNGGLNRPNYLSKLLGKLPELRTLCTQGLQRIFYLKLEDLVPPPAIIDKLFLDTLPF
smiles,measurement,setting,value
"C=CCc1c(N(C)c2ccc(C(=O)O)cc2)nc(-c2ccccc2)nc1C(F)(F)F [Example 3, 4-((5-allyl-2-phenyl-6-(trifluoromethyl)pyrimidin-4-yl)(methyl)amino)benzoic acid]",remaining SN axonal terminals in the striatum,[1]; 10 mg/kg IP every 12 hours,doubling
same,increase of TH(+) midbrain neuron survival,"[1]; 10 mg/kg IP every 12 hours for 6 days, stereology",31%
same,improvement of motor coordination (accelerating rotarod),"[1]; 10 mg/kg IP every 12 hours for 6 days, vs vehicle",> 100%
same,neuroprotection with once-a-day injection regimen,[1]; 20 mg/kg once a day,ineffective
same,increase in number of surviving neuronal bodies (SNpc),"[1]; C57/BL6, IP 10 mg/kg every 12 hours for 8 days",33.5%
same,activation of Nurr1:RXRγ heterodimers,Nurr1:RXRγ heterodimer,did not activate
same,increase of TH expression,TH,about 90%
same,increase of GCH1 expression,GCH1,about 42%
same,increase of AADC expression,[2],about 70%
